Laboratory results reported in patent US4973576A, “Bisphophonic acid derivatives and pharmaceutical compositions containing the same” (Yamanouchi Pharmaceutical Co., Ltd., priority 1987, dated 1990).
“And” between values parts separate entries of the source, which are not always exact repeats. Equal values may be shown once.

Legend:
[1] = test system: hypercalcemia induced by administration of parathyroid hormone (PTH); assay: Inhibitory effect on hypercalcemia induced by PTH in rats (serum Ca++); assay type: in vivo, male Wistar rats; settings: mean ± S.E.
Procedure: Rats of hypercalcemia induced by administration of parathyroid hormone (hereinafter referred to as "PTH") were used, and the decrement of the serum calcium amount by administration of the compound was measured.
30 μg/kg of human 1-34 PTH (manufactured by Peptide Laboratory) which was dissolved in a 0.1% BSA (bovine serum albumin)-containing physiological saline (content of the PTH is 6 μg/ml) was intravenously injected in an amount of 30 μg/kg (5 ml/kg as the solution) to 5-week male Wistar rats which had been fasting for 20 hours. Only 0.1% BSA-containing physiological saline was injected to the normal control group in the same manner. 45 minutes after the PTH injection, the rats were etherized and then subjected to celiotomy, whereby the blood was collected from the abdominal cava with a vacuum blood-collecting tube. The blood collected was immediately centrifuged by 3000 rpm, at 4° C. for 10 minutes to isolate the serum. The ionized calcium (Ca^++) concentration in the serum was immediately measured with a Ca^++ meter (Sera 250, manufactured by Horiba Manufacturing Co.).
The compounds of the present invention were dissolved using sodium hydroxide and hydrochloric acid, in physiological saline (pH 7.4), for subcutaneous administration, in such amounts that the dose amounted to 2 ml/kg, and for oral administration, in distilled water (pH 7.4) so that the dose amounted to 5 ml/kg. They were administered 24 or 72 hours before the PTH injection. A physiological saline or a distilled water was administered to the normal control group and the control group, in the same manner. Salmon calcitonin (SCT, manufactured by Armour Co.) was dissolved in physiological saline so that the dose amounted to 2 ml/kg, and then subcutaneously administered 30 minutes before the PTH injection.
The results for each group were expressed in terms of mean±S.E. (standard error) and comparison was made among the groups by testing by one-way analysis of variance. The significance level was taken at 5%.

[2] = test system: immobilization-induced atrophy of bone; assay: Inhibition of bone resorption: immobilization-induced (neurectomy) atrophy of bone in rats; assay type: in vivo, Wistar rats; settings: for Left humerus Ashed weight / Left humerus Ashed weight / Dry weight / Left humerus Dry weight: 2 weeks
adjuvant arthritis [3] = assay: Experiment (3)-I: therapeutic effect on adjuvant arthritis in rats; assay type: in vivo, male Lewis rats; settings: po
Procedure: (§1) Specifically, for investigation of the anti-arthritic effect, experimental models of adjuvant arthritis which is resemble to rheumatoid arthritis in human were used in two test methods. In one method to test the therapeutic effect of the compounds, the compounds to be tested were administered to the animals already having the adjuvant arthritis. In the other method to test the prophylactic effect of the compounds, these were administered after the adjuvant administration, and the expression and progress of the resulting arthritis, if any, was observed.
0.1 ml of a suspension of dry dead cells of Mycobacterium butyricum as suspended in liquid paraffin in a proportion of 6 mg/ml was subcutaneously injected to male Lewis rats (7-week) in the tail. After 17 or 18 days, the thickness of the both hind paws was measured. One group comprising six rats in which the arthritis was noticeably observed was isolated. After the grouping day, the compound to be tested was subcutaneously or orally administered once a day for 14 days to the rats. Next day after the last administration, the thickness of the soles of the both hind legs was again measured.
(§2) For the Experiments (3)-I and (3)-II, the compounds of the present invention were dissolved, using sodium hydroxide and hydrochloric acid in physiological saline (pH 7.4), for subcutaneous administration, in such amount that the dose amounted to 2 ml/kg, and for oral administration, in distilled water (pH 7.4) so that the dose amounted to 5 ml/kg; and indometacin (as comparative drug) was suspended in 0.5% methyl cellulose solution so that the dose amounted to 5 ml/kg. Each rat was weighed at the first day of starting the administration of the compound to be tested and at the last day of the administration of the compound, and the difference of the weight there between (ΔB.W.) was obtained.
(§3) The results for each group were expressed in terms of mean ±S.E. (standard error) and comparison was made among the groups by testing by one-way analysis of variance. The significance level was taken at 5%.

adjuvant arthritis [4] = assay: Experiment (3)-II: prophylactic effect on adjuvant arthritis in rats; assay type: in vivo, male Lewis rats; settings: po, 1 mg/kg once a day 21 days
Procedure: as §1
0.05 ml of the suspension of dry dead bacilli of Mycobacterium butyricum as suspended in liquid paraffin in a proportion of 6 mg/ml was subcutaneously injected to male Lewis rats (6 to 7-week) in the left hind paw. After the adjuvant injection, the compound to be tested was administered to the rats once a day for 21 days. Next day after the last administration, the thickness of the both hind paws of the rats was measured.
as §2, §3

[5] = oral, 30 mg/kg, 72 hours before PTH injection
[6] = oral, 100 mg/kg, 72 hours before PTH injection
[7] = sc, 0.01 mg/kg, 72 hours before PTH injection
[8] = sc, 0.03 mg/kg, 72 hours before PTH injection
[9] = sc, 0.1 mg/kg, 72 hours before PTH injection
[10] = sc, 0.3 mg/kg, 72 hours before PTH injection
[11] = sc, 1.0 mg/kg, 72 hours before PTH injection
[12] = sc, 30 mg/kg, 24 hours before PTH injection
[13] = 1 mg/kg once a day 14 days, 1 mg/kg

CCCCCc1cc(NC(P(=O)(O)O)P(=O)(O)O)no1 [Example 21, [(5-n-pentyl-3-isoxazolyl)amino]methylene-bis(phosphonic acid)]
Serum Ca++ ([1]; oral, 10 mg/kg, 72 hours before PTH injection): 1.52 ± 0.02 m mole/liter
Serum Ca++ [1, 5]: 1.36 ± 0.06 m mole/liter
Serum Ca++ [1, 6]: 1.33 ± 0.04 m mole/liter
Serum Ca++ [1, 7]: 1.47 ± 0.02 m mole/liter
Serum Ca++ [1, 8]: 1.38 ± 0.01 m mole/liter
Serum Ca++ [1, 9]: 1.22 ± 0.003 m mole/liter
Left humerus Ashed weight ([2]; oral, 3 mg/kg): 64.4 ± 2.3 mg
Left humerus Ashed weight / Dry weight ([2]; oral, 3 mg/kg): 54.4 ± 0.2%
Left humerus Dry weight ([2]; oral, 3 mg/kg): 113.0 ± 3.1 mg
Left humerus Ashed weight ([2]; oral, 10 mg/kg): 67.0 ± 1.2 mg
Left humerus Ashed weight / Dry weight ([2]; oral, 10 mg/kg): 56.0 ± 0.4%
Left humerus Dry weight ([2]; oral, 10 mg/kg): 115.2 ± 4.0 mg
Left humerus Ashed weight ([2]; oral, 30 mg/kg): 65.7 ± 0.9 mg
Left humerus Ashed weight / Dry weight ([2]; oral, 30 mg/kg): 56.5 ± 0.2%
Left humerus Dry weight ([2]; oral, 30 mg/kg): 118.7 ± 2.0 mg
Left humerus Ashed weight ([2]; sc, 0.01 mg/kg): 65.7 ± 0.9 mg
Left humerus Ashed weight / Dry weight ([2]; sc, 0.01 mg/kg): 56.4 ± 0.2%
Left humerus Dry weight ([2]; sc, 0.01 mg/kg): 116.5 ± 1.5 mg
Left humerus Ashed weight ([2]; sc, 0.03 mg/kg): 73.6 ± 0.7 mg
Left humerus Ashed weight / Dry weight ([2]; sc, 0.03 mg/kg): 56.9 ± 0.2%
Left humerus Dry weight ([2]; sc, 0.03 mg/kg): 129.2 ± 1.0 mg
Left humerus Ashed weight ([2]; sc, 0.1 mg/kg): 72.8 ± 1.8 mg
Left humerus Ashed weight / Dry weight ([2]; sc, 0.1 mg/kg): 55.9 ± 0.4%
Left humerus Dry weight ([2]; sc, 0.1 mg/kg): 130.1 ± 3.2 mg
Thickness of Paw (average of right and left paws) (adjuvant arthritis [3]; 10 mg/kg once a day 14 days): 1317 ± 35 × 0.01 mm
ΔB.W. (adjuvant arthritis [3]; 10 mg/kg once a day 14 days): 29.7 ± 1.1 g
Thickness of Paw (average of right and left paws) (adjuvant arthritis [3]; 30 mg/kg once a day 14 days): 1321 ± 35 × 0.01 mm
ΔB.W. (adjuvant arthritis [3]; 30 mg/kg once a day 14 days): 30.0 ± 1.1 g
Thickness of Paw (average of right and left paws) (adjuvant arthritis [3]; 100 mg/kg once a day 14 days): 1119 ± 52 × 0.01 mm
ΔB.W. (adjuvant arthritis [3]; 100 mg/kg once a day 14 days): 29.7 ± 4.5 g

CC(C)(C)c1cc(NC(P(=O)(O)O)P(=O)(O)O)no1 [Known Compound (note-1), [(5t-butyl-3-isoxazolyl)amino]methylenebis(phosphonic acid), reference compound]
Serum Ca++ [1, 10]: 1.51 ± 0.03 m mole/liter
Serum Ca++ [1, 11]: 1.43 ± 0.02 m mole/liter

CCc1cc(NC(P(=O)(O)O)P(=O)(O)O)no1 [Manufacture Example 2, [(5-ethyl-3-isoxazolyl)amino]methylene-bis(phosphonic acid)]
Serum Ca++ [1, 5]: 1.46 ± 0.02 m mole/liter
Serum Ca++ [1, 6]: 1.16 ± 0.07 m mole/liter
Serum Ca++ [1, 9]: 1.39 ± 0.02 m mole/liter
Serum Ca++ [1, 10]: 1.22 ± 0.02 m mole/liter
Serum Ca++ [1, 12]: 1.41 ± 0.02 m mole/liter
Difference of Bone Ash Content (b) ([2]; sc, 1.0 mg/kg once a day 14 days, nontreated minus treated humerus ashed weight): 3.0 ± 0.7 mg
Difference of Bone Weight (a) ([2]; sc, 1.0 mg/kg once a day 14 days, nontreated minus treated humerus dry weight): 4.8 ± 1.3 mg

CCCCc1cc(NC(P(=O)(O)O)P(=O)(O)O)no1 [Example 28, [(5-n-butyl-3-isoxazolyl)amino]methylene-bis(phosphonic acid)]
Serum Ca++ [1, 5]: 1.46 ± 0.02 m mole/liter
Serum Ca++ [1, 6]: 1.31 ± 0.04 m mole/liter
Serum Ca++ [1, 9]: 1.36 ± 0.01 m mole/liter
Serum Ca++ [1, 10]: 1.18 ± 0.02 m mole/liter

Cc1conc1NC(P(=O)(O)O)P(=O)(O)O [Manufacture Example 3, [(4-methyl-3-isoxazolyl)amino]methylene-bis(phosphonic acid)]
Serum Ca++ [1, 10]: 1.45 ± 0.01 m mole/liter
Serum Ca++ [1, 11]: 1.23 ± 0.05 m mole/liter

CCOP(=O)(O)C(Nc1cc(C)on1)P(=O)(O)O (stereo not drawn) [Example 14, ethyl [(5-methyl-3-isoxazolyl)amino]methylene-bis(phosphonate)]
Serum Ca++ [1, 12]: 1.45 ± 0.02 m mole/liter

CCCc1cc(NC(P(=O)(O)O)P(=O)(O)O)no1 [Example 8]
Serum Ca++ [1, 5]: 1.48 ± 0.02 m mole/liter
Serum Ca++ [1, 6]: 1.35 ± 0.02 m mole/liter
Serum Ca++ [1, 9]: 1.41 ± 0.02 m mole/liter
Serum Ca++ [1, 10]: 1.27 ± 0.02 m mole/liter

O=P(O)(O)C(Nc1cc(C2CC2)on1)P(=O)(O)O [Example 6, [(5-cyclopropyl-3-isoxazolyl)-amino]-methylene-bis(phosphonic acid)]
Serum Ca++ [1, 9]: 1.42 ± 0.02 m mole/liter
Serum Ca++ [1, 10]: 1.25 ± 0.02 m mole/liter

CC(O)(P(=O)(O)O)P(=O)(O)O [Etidronate, 1-hydroxyethylidene-1,1-bisphosphonic acid, reference compound]
Serum Ca++ ([1]; sc, 10 mg/kg, 72 hours before PTH injection): 1.44 ± 0.01 m mole/liter
Serum Ca++ ([1]; sc, 30 mg/kg, 72 hours before PTH injection): 1.40 ± 0.01 m mole/liter

O=P(O)(O)C(Nc1cc(/C=C/c2ccccc2)on1)P(=O)(O)O [Example 32]
Serum Ca++ [1, 9]: 1.41 ± 0.02 m mole/liter
Serum Ca++ [1, 10]: 1.27 ± 0.02 m mole/liter

CCCCCCc1cc(NC(P(=O)(O)O)P(=O)(O)O)no1 [Example 22]
Serum Ca++ [1, 5]: 1.44 ± 0.02 m mole/liter
Serum Ca++ [1, 6]: 1.28 ± 0.04 m mole/liter
Serum Ca++ [1, 7]: 1.45 ± 0.01 m mole/liter
Serum Ca++ [1, 8]: 1.35 ± 0.01 m mole/liter
Serum Ca++ [1, 9]: 1.21 ± 0.02 m mole/liter

CCCCCCCc1cc(NC(P(=O)(O)O)P(=O)(O)O)no1 [Example 23]
Serum Ca++ [1, 5]: 1.49 ± 0.00 m mole/liter
Serum Ca++ [1, 6]: 1.41 ± 0.02 m mole/liter
Serum Ca++ [1, 8]: 1.40 ± 0.01 m mole/liter
Serum Ca++ [1, 9]: 1.33 ± 0.01 m mole/liter

CC(C)=CCCc1cc(NC(P(=O)(O)O)P(=O)(O)O)no1 [Example 31, [[5-(4-methyl-3-ene)pentyl-3-isoxazolyl]amino]methylene-bis(phosphonic acid)]
Serum Ca++ [1, 9]: 1.20 ± 0.01 m mole/liter
Serum Ca++ [1, 10]: 1.05 ± 0.03 m mole/liter

CC(C)CCc1cc(NC(P(=O)(O)O)P(=O)(O)O)no1 [Example 25]
Serum Ca++ [1, 9]: 1.39 ± 0.02 m mole/liter
Serum Ca++ [1, 11]: 1.36 ± 0.02 m mole/liter

COc1ccc2c(c1)c(CC(=O)O)c(C)n2C(=O)c1ccc(Cl)cc1 [Indometacin, reference compound]
Thickness of Paw (average of right and left paws) (adjuvant arthritis [3]; [13]): 956 ± 32 × 0.01 mm and 1044 ± 46 × 0.01 mm and 931 ± 26 × 0.01 mm
ΔB.W. (adjuvant arthritis [3]; [13]): 67 ± 4 g and 51 ± 4 g and 58.2 ± 1.9 g
ΔB.W. (adjuvant arthritis [4]): 261 ± 7 g
Thickness of Paw, Left (adjuvant arthritis [4]; adjuvant-injected paw): 1096 ± 41 × 0.01 mm
Thickness of Paw, Right (adjuvant arthritis [4]; opposite paw): 1028 ± 47 × 0.01 mm

CC(C)c1cc(NC(P(=O)(O)O)P(=O)(O)O)no1 [Known Compound (note-2), [(5isopropyl-3-isoxazolyl)amino]methylenebis(phosphonic acid), reference compound]
Serum Ca++ [1, 9]: 1.58 ± 0.00 m mole/liter
Serum Ca++ [1, 10]: 1.49 ± 0.01 m mole/liter
Serum Ca++ [1, 11]: 1.39 ± 0.02 m mole/liter

CC(=O)N(c1cc(C)on1)C(P(=O)(O)O)P(=O)(O)O [Example 12, [N-acetyl(5-methyl-3-isoxazolyl)amino]methylene-bis(phosphonic acid)]
Serum Ca++ [1, 12]: 1.44 ± 0.02 m mole/liter
